Results taken from patent publication US20050070462A1, “Method for stabilising of nucleic acids” (Intercell AG, priority 2001, published 2005).
Ends that are not written are not given here.

Key:
[1] = test system: TRP-2181-188-specific immune responses; experiment: IFN-γ ELISPOT of lymph node cells after footpad injection with TRP-2181-188 (Examples 2 and 3); type: in vivo, Mice C57Bl/6; details: injected with TRP-2181-188 and co-injection of poly-L-arginine 100 μg/mouse; ODN 5 nmol/mouse
[2] = test system: OVA257-264-specific IFN-γ producing T cells; experiment: IFN-γ ELISPOT of PBMCs at day 7 after injection with OVA257-264 and KLK (Example 6); type: in vivo, Mice C57Bl/6; details: injected with OVA257-264, single adjuvant
[3] = test system: peptide-specific IFN-γ-producing T cells (TRP-2181-188); experiment: IFN-γ ELISPOT of PBMCs at day 7 after injection with TRP-2181-188 and KLK (Example 7); type: in vivo, Mice C57Bl/6; details: TRP-2181-188 alone or with a single adjuvant
[4] = test system: TRP-2181-188-specific immune responses; experiment: IFN-γ ELISPOT of spleen cells at day 6, 49 and 98 after injection with TRP-2181-188 (Example 5); type: in vivo, Mice C57Bl/6; details: co-injection of TRP-2181-188, pR and ODN, day 6, day 49, day 98 after single injection, compared to TRP-2181-188 with pR or CpG 1668b
[5] = test system: OVA257-264-specific immune responses; experiment: IFN-γ ELISPOT of popliteal lymph node cells 4 days after footpad injection with OVA257-264 (Example 1); type: in vivo, Mice C57Bl/6; details: injected with OVA257-264 and co-injection of poly-L-arginine 100 μg/mouse; ODN 5 nmol/mouse; day 4
Experimental: • Mice C57Bl/6 (Harlan/Olac) • Peptide OVA257-264-Peptide (SIINFEKL), a MHC class I (H-2 Kb)-restricted epitope of chicken ovalbumin (Rotzschke et al., 1991), synthesized by standard solid phase F-moc synthesis, HPLC purified and analysed by mass spectroscopy for purity • Dose: 300 μg/mouse • Poly-L-arginine (pR) Poly-L-arginine with an average degree of polymerization of 43 arginine residues; SIGMA chemicals • Dose: 100 μg/mouse • CpG-ODN 1668 thiophosphate substituted ODNs containing CpG-motif: tcc atg acg ttc ctg atg ct, were synthesized by Purimex GmbH, Göttingen. • Dose: 5 nmol/mouse • CpG-ODN 1668 b ODNs containing CpG-motif (not substituted with thiophospate): tcc atg acg ttc ctg atg ct, were synthesized by Purimex GmbH, Göttingen. • Dose: 5 nmol/mouse. Experimental Groups (4 Mice Per Group) • 1. OVA257-264+pR • 2. OVA257-264+CpG-ODN 1668 • 3. OVA257-264+CpG-ODN 1668 b • 4. OVA257-264+CPG-ODN 1668+pR • 5. OVA257-264+CPG-ODN 1668 b+pR. […] This method is a widely used procedure allowing the quantification of antigen-specific T cells. […] Spots representing single IFN-γ producing T cells were counted and the number of background spots was substracted from all samples. The high number of spots detected after the stimulation with Con A (data not shown) indicates a good condition of the used lymphocytes. […]

serum DNAses = experiment: Degradation of DNA-plasmid pSP65 by serum DNAses, agarose gel (Example 8); type: in vitro ADME; details: incubated with serum from naïve mice, 1 h at 37° C., presence of poly-L-arginine 2.4 μg
Experimental: To investigate the protective effect of pR in preventing the degradation of DNA by DNAses the following in vitro experiment was performed. To show a possible in vivo relevance serum was used as source of DNases.
The DNA-plasmid pSP65 (1.58 μg/2 μl) was incubated with serum (8 μl) from naïve mice in the presence or absence of poly-L-arginine (2.4 μg/2.4 μl) for 1 h at 37° C. Addition of heparin (1.6 U/1.6 μl) for 20 min at RT was used for the dissociation of DNA/pR-complexes allowing DNA to migrate into the gel. […] As control a 100 bp DNA marker (GIBCO BRL) was used.

[6] = test system: TRP-2181-188-specific immune responses; experiment: IFN-γ ELISPOT of spleen cells at day 40 after injection with TRP-2181-188 (Example 4); type: in vivo, Mice C57Bl/6; details: injected with TRP-2181-188, single adjuvant, compared to TRP-2181-188 alone

For “U-ODN 13b: ODNs containing deoxy-Uridine monophosphate (not substituted with thiophospate): tcc atg acu ttc ctg atg ct (DNA TCCATGACUTTCCTGATGCT; DNA, all phosphodiester, T or U not given here; further chemistry not fully specified)”, the “TRP-2181-188-specific immune response (IFN-γ-producing lymph node cells)” value [1] was “only upon co-injection of poly-L-arginine a strong immune response was induced”.
With “KLKLLLLLKLK—COOH (KLKLLLLLKLK-OH) [synthetic peptide containing KLK-motifs separated by a linker of hydrophobic amino acids]” the “peptide-specific IFN-γ-production (PBMCs)” value [2] was “no peptide-specific IFN-γ-production” and the “peptide-specific IFN-γ-production (PBMCs)” value [3] was “no peptide-specific IFN-γ-production”.
With “CpG-ODN 1668 b: ODNs containing CpG-motif (not substituted with thiophospate): tcc atg acg ttc ctg atg ct (DNA TCCATGACGTTCCTGATGCT; unmodified DNA)” the “peptide-specific IFN-g producing cells (spleen)” value ([4]; listed as CpG 1668 b) was “potent and long lasting immune stimulatory effect”, the “peptide-specific IFN-g producing cells (spleen)” value ([4]; listed as CpG 1668b) was “significantly higher numbers of peptide-specific IFN-g producing cells” and the “OVA257-264-specific immune response (IFN-γ-producing cells/1×10^6 lymph node cells)” value [5] was “only upon co-injection of poly-L-arginine a high immune response was induced”.
Poly-L-arginine [pR] was tested, and the “degradation of pSP65 DNA by serum DNases (agarose gel band pattern)” value (serum DNAses) was “prevented” and the “TRP-2181-188-specific immune response (IFN-γ-producing spleen cells)” value [6] was “enhances TRP-2181-188-specific immune responses”.
For “TRP-2181-188: VYDFFVWL, a MHC class I (H-2 Kb)-restricted epitope of mouse tyrosinase related protein-2 [reference compound]”, the “peptide-specific IFN-γ-production (PBMCs)” value [3] was “no peptide-specific IFN-γ-production”.
